We go through four compounds from ChEMBL document CHEMBL1135610, “Aza-peptide epoxides: a new class of inhibitors selective for clan CD cysteine proteases” (J Med Chem, 2002).

The source made the active and inactive calls. The rule behind the calls is not given here.

In one test the target is T1, Caspase-1 (Homo sapiens) (UniProt P29466).
T1 sequence (whole entry): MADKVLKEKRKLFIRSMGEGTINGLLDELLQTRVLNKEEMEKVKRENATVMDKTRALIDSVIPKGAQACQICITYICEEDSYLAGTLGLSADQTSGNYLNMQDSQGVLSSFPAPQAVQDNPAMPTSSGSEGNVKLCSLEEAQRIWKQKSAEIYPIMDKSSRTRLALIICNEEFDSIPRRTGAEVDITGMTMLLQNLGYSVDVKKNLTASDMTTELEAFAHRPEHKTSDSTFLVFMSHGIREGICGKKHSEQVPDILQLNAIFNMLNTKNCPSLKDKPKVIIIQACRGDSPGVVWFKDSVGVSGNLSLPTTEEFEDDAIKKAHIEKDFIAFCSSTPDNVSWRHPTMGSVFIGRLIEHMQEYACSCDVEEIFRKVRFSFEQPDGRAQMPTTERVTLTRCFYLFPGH
Nature of the test: Inhibitory activity against Caspase-1.

In another test the target is T2, Caspase-6 (Homo sapiens) (UniProt P55212).
T2 sequence (whole entry): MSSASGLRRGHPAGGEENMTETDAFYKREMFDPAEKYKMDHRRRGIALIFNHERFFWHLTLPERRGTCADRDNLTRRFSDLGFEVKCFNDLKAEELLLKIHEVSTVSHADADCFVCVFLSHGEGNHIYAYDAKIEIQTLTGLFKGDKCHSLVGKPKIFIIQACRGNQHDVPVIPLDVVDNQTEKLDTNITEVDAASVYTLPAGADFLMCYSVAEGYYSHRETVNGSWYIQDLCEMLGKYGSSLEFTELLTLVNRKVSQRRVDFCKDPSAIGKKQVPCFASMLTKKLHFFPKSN
Nature of the test: Inhibitory activity against Caspase-6.

A further test has as its target Caspase-8 (Homo sapiens) (UniProt Q14790). Nature of the test: Inhibitory activity against Caspase-8.
For test [1], the target named is Cathepsin B (Homo sapiens) (UniProt P07858). Nature of the test: Inhibitory activity against Cathepsin B.
Test [2] has as its target T3, Papain (Carica papaya) (UniProt P00784).
T3 sequence (whole entry): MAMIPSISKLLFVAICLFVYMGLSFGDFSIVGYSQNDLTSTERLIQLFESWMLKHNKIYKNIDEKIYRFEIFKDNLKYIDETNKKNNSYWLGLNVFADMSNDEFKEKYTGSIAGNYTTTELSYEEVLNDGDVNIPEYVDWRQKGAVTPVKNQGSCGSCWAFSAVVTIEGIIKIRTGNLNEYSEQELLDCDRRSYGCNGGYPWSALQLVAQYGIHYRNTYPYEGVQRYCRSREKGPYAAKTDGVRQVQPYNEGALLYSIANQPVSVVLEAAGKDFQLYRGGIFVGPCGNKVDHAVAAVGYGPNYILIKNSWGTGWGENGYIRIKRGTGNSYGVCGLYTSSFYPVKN
Nature of the test: Inhibitory activity against papain.

The target in another test is T4, Caspase-3 (Homo sapiens) (UniProt P42574).
T4 sequence (whole entry): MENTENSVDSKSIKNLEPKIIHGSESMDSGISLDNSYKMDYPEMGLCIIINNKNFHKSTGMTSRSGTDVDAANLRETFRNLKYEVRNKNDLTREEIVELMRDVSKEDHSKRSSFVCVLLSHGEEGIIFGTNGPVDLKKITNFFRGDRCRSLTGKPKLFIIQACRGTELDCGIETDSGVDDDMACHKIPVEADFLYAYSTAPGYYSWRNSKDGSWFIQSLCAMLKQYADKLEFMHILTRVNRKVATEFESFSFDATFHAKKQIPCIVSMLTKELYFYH
Nature of the test: Inhibitory activity against Caspase-3.

In test [3] the test system is Legumain (Sus scrofa). Nature of the test: Inhibitory activity against legumain.
For test [4], the target named is Cathepsin B (Homo sapiens) (UniProt P07858). Nature of the test: Inhibitory activity against Cathepsin B; No inhibition.
Test [5] concerns the target T3, Papain (Carica papaya). Nature of the test: Inhibitory activity against papain; No inhibition.
Test [6] concerns Legumain (Sus scrofa). Nature of the test: Inhibitory activity against legumain; No inhibition.

Chain of Caspase-8 (Homo sapiens) (Q14790 217-374 limits assumed): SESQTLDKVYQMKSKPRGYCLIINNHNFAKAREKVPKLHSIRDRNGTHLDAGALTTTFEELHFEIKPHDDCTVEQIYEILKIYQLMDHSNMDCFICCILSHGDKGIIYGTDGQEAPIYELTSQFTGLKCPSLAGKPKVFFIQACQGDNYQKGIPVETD
Chain of Caspase-8 (Homo sapiens) (Q14790 385-479 limits assumed): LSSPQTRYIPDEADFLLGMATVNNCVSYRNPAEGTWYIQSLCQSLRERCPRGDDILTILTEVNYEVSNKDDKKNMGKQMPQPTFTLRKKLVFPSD

With `CC(C)[C@H](NC(=O)CCc1ccccc1)C(=O)N[C@@H](C)C(=O)NN(CC(=O)O)C(=O)C1OC1C(=O)OCc1ccccc1` (stereo not given in full), the k obs / 1 on Caspase-1 (Homo sapiens) is 36200 M⁻¹ s⁻¹; on Caspase-6 (Homo sapiens) it was 52 M⁻¹ s⁻¹; at Caspase-8 (Homo sapiens), 63 M⁻¹ s⁻¹; in [1], under 10 M⁻¹ s⁻¹; on Papain (Carica papaya) [2], under 10 M⁻¹ s⁻¹; on Caspase-3 (Homo sapiens) it was 58 M⁻¹ s⁻¹. In addition, the k obs / 1 in the test on Legumain (Sus scrofa) [3] was determined as 21 M⁻¹ s⁻¹.

In the case of `CC(C)[C@H](NC(=O)CCc1ccccc1)C(=O)N[C@@H](C)C(=O)NN(CC(=O)O)C(=O)C1OC1CCc1ccccc1` (stereo not given in full), the k obs / 1 on Caspase-1 (Homo sapiens) is 6130 M⁻¹ s⁻¹; on Caspase-6 (Homo sapiens) it was under 10 M⁻¹ s⁻¹; on Caspase-8 (Homo sapiens), under 10 M⁻¹ s⁻¹; at Caspase-3 (Homo sapiens), under 10 M⁻¹ s⁻¹. Besides, the NI result (in test [4]; at Papain (Carica papaya) [5]; in the test with Legumain (Sus scrofa) [6]) was “inactive” throughout.

Regarding `CCOC(=O)C1OC1C(=O)N(CC(N)=O)NC(=O)[C@@H](C)NC(=O)[C@@H](C)NC(=O)Cc1ccccc1` (stereo in doubt; 17), the NI result (in test [4]; on Papain (Carica papaya) [5]) was “inactive” in each case. For the same compound, the k obs / 1 in the test with Legumain (Sus scrofa) [3] came to 142 M⁻¹ s⁻¹.

In the case of `CCOC(=O)C1OC1C(=O)N(CC(C)C)NC(=O)[C@@H](CC(C)C)NC(=O)[C@@H](CC(C)C)NC(=O)Cc1ccccc1` (stereo in doubt; 20), the NI result (in [4]; in the test on Legumain (Sus scrofa) [6]) was “inactive” each time. Further, the k obs / 1 at Papain (Carica papaya) [5] was determined as 35 M⁻¹ s⁻¹.
